As usually defined, the ILS is the gain in survival time of treated over control animals, in per cent. Lower therefore signals little gain in survival.

The values that follow come from ChEMBL document CHEMBL1122305, “Adriamycin analogues. Preparation and biological evaluation of some novel 14-thiaadriamycins” (1983).

For experiment [1], the system named is L1210. In words: Percent increase in life span relative to untreated controls in murine L1210 leukemia infected B6D2F1J male mice at […] optimal dose. The format is functional, Mus musculus.
The next experiment relates to CCRF-CEM. As to the kind of experiment: In vitro growth inhibition against CCRF-CEM (human lymphoblastic leukemic) cell line. The following applies: read-out: ID50 (the source's name). It counts as functional.
Experiment [2] has as its system L1210. In words: Percent increase in life span relative to untreated controls in murine L1210 leukemia infected B6D2F1J male mice at 60 mg/kg optimal dose. It counts as functional. The following applies: Mus musculus.
The test system of experiment [3] is L1210. As to the kind of experiment: Percent increase in life span relative to untreated controls in murine L1210 leukemia infected B6D2F1J male mice at 10.13 mg/kg optimal dose. Conditions: Mus musculus. The format is functional.
Experiment [4] concerns L1210. As to the kind of experiment: Percent increase in life span relative to untreated controls in murine L1210 leukemia infected B6D2F1J male mice at 50 mg/kg optimal dose. The following applies: Mus musculus. The format is functional.
In experiment [5] the test system is L1210. As to the kind of experiment: Percent increase in life span relative to untreated controls in murine L1210 leukemia infected B6D2F1J male mice at 30 mg/kg optimal dose. It counts as functional. Conditions: Mus musculus.
In experiment [6] the test system is L1210. In words: Percent increase in life span relative to untreated controls in murine L1210 leukemia infected B6D2F1J male mice at 101.25 mg/kg optimal dose. It counts as functional. Conditions: Mus musculus.
The test system of experiment [7] is L1210. In words: Percent increase in life span relative to untreated controls in murine L1210 leukemia infected B6D2F1J male mice at 4 mg/kg optimal dose. The following applies: Mus musculus. It counts as functional.

Consider `CCCCSCC(=O)[C@]1(O)Cc2c(O)c3c(c(O)c2[C@@H](OC2CC(NC(=O)C(F)(F)F)C(O)C(C)O2)C1)C(=O)c1c(OC)cccc1C3=O` (stereo not given in full), for which the ILS with L1210 [1] is given as 0%. The IC50 in the experiment on CCRF-CEM was 5.62 µM.
`COc1cccc2c1C(=O)c1c(O)c3c(c(O)c1C2=O)C[C@@](O)(C(=O)C[Se]c1ccccc1)C[C@@H]3OC1CC(NC(=O)C(F)(F)F)C(O)C(C)O1` (stereo not given in full): the IC50 in the experiment on CCRF-CEM stood at 2.8 µM. In addition, the increase in lifespan (ILS) at 60 mg/kg with L1210 [2] is 66%.
Regarding `CCCCCCCCCCCCSCC(=O)[C@]1(O)Cc2c(O)c3c(c(O)c2[C@@H](OC2CC(N)C(O)C(C)O2)C1)C(=O)c1c(OC)cccc1C3=O` (stereo not given in full), in the experiment with CCRF-CEM, the IC50 came out at 1.44 µM. The increase in life span (ILS) at 10.13 mg/kg in the experiment with L1210 [3] was 11%.
As to `COc1cccc2c1C(=O)c1c(O)c3c(c(O)c1C2=O)C[C@@](O)(C(=O)CSCCSCC(=O)[C@]1(O)Cc2c(O)c4c(c(O)c2[C@H](OC2CC(N)C(O)C(C)O2)C1)C(=O)c1c(OC)cccc1C4=O)C[C@@H]3OC1CC(N)C(O)C(C)O1` (stereo not given in full), in the experiment on CCRF-CEM, the IC50 was 1.06 µM.
For `CCCCC(=O)OCC(=O)[C@]1(O)Cc2c(O)c3c(c(O)c2[C@@H](OC2CC(NC(=O)C(F)(F)F)C(O)C(C)O2)C1)C(=O)c1c(OC)cccc1C3=O` (stereo not given in full), the IC50 in the experiment on CCRF-CEM stood at 0.24 µM. In the experiment on L1210 [4], this compound showed an increase in lifespan (ILS) at 50 mg/kg of more than 455%.
As for `COc1cccc2c1C(=O)c1c(O)c3c(c(O)c1C2=O)C[C@@](O)(C(=O)CSCCCSCC(=O)[C@]1(O)Cc2c(O)c4c(c(O)c2[C@@H](OC2CC(N)C(O)C(C)O2)C1)C(=O)c1c(OC)cccc1C4=O)C[C@@H]3OC1CC(N)C(O)C(C)O1` (stereo not given in full), the IC50 in the experiment with CCRF-CEM was found to be 0.83 µM.
For `CCCCCSCC(=O)[C@]1(O)Cc2c(O)c3c(c(O)c2[C@@H](OC2CC(N)C(O)C(C)O2)C1)C(=O)c1c(OC)cccc1C3=O` (stereo not given in full), in the experiment on CCRF-CEM, the IC50 is 0.95 µM. In the experiment on L1210 [3], this compound registered an ILS at 10.13 mg/kg of 33%.
In turn, `CCOC(=O)CSCC(=O)[C@]1(O)Cc2c(O)c3c(c(O)c2[C@@H](OC2CC(N)C(O)C(C)O2)C1)C(=O)c1c(OC)cccc1C3=O` (stereo not given in full) displayed an ILS at 30 mg/kg in the experiment on L1210 [5] of 50%. The IC50 in the experiment on CCRF-CEM turned out to be 0.23 µM.
On to `COc1cccc2c1C(=O)c1c(O)c3c(c(O)c1C2=O)C[C@@](O)(C(=O)CSc1ccccc1)C[C@@H]3OC1CC(NC(=O)C(F)(F)F)C(O)C(C)O1` (stereo not given in full), for which, in the experiment with L1210 [6], the increase in life span (ILS) at 101.25 mg/kg worked out at 10%. For the same compound, the IC50 in the experiment on CCRF-CEM is more than 13.7 µM.
`COc1cccc2c1C(=O)c1c(O)c3c(c(O)c1C2=O)C[C@@](O)(C(=O)CO)C[C@@H]3O[C@H]1C[C@H](N)[C@H](O)[C@H](C)O1` [DOXORUBICIN]: the IC50 in the experiment with CCRF-CEM was 0.066 µM. Moreover, the ILS at 4 mg/kg in the experiment with L1210 [7] was determined as 50%.
For `CCCCSCC(=O)[C@]1(O)Cc2c(O)c3c(c(O)c2[C@@H](OC2CC(N)C(O)C(C)O2)C1)C(=O)c1c(OC)cccc1C3=O` (stereo not given in full), the IC50 with CCRF-CEM turned out to be 0.25 µM. Further, in the experiment on L1210 [3], the increase in lifespan (ILS) at 10.13 mg/kg was determined as 33%.
`COc1cccc2c1C(=O)c1c(O)c3c(c(O)c1C2=O)C[C@@](O)(C(=O)C[Se]c1ccccc1)C[C@@H]3OC1CC(N)C(O)C(C)O1` (stereo not given in full): the IC50 with CCRF-CEM amounted to 0.4 µM.
With `CCCCCCCCCCCCSCC(=O)[C@]1(O)Cc2c(O)c3c(c(O)c2[C@@H](OC2CC(NC(=O)C(F)(F)F)C(O)C(C)O2)C1)C(=O)c1c(OC)cccc1C3=O` (stereo not given in full), the ILS with L1210 [1] is recorded as 0%. The IC50 with CCRF-CEM is more than 15 µM.
Consider `CCCCCSCC(=O)[C@]1(O)Cc2c(O)c3c(c(O)c2[C@@H](OC2CC(NC(=O)C(F)(F)F)C(O)C(C)O2)C1)C(=O)c1c(OC)cccc1C3=O` (stereo not given in full), for which the increase in lifespan (ILS) in the experiment with L1210 [1] turned out to be 10%. Moreover, the IC50 with CCRF-CEM was more than 13.8 µM.
`COc1cccc2c1C(=O)c1c(O)c3c(c(O)c1C2=O)C[C@@](O)(C(=O)CSCCCCCCCCCSCC(=O)[C@]1(O)Cc2c(O)c4c(c(O)c2[C@H](OC2CC(N)C(O)C(C)O2)C1)C(=O)c1c(OC)cccc1C4=O)C[C@@H]3OC1CC(N)C(O)C(C)O1` (stereo not given in full): the IC50 in the experiment on CCRF-CEM worked out at 1.23 µM.
`CCOC(=O)CSCC(=O)[C@]1(O)Cc2c(O)c3c(c(O)c2[C@@H](OC2CC(NC(=O)C(F)(F)F)C(O)C(C)O2)C1)C(=O)c1c(OC)cccc1C3=O` (stereo not given in full) returned an ILS in the experiment on L1210 [1] of 0%. In addition, in the experiment with CCRF-CEM, the IC50 came to 5.33 µM.
On to `COc1cccc2c1C(=O)c1c(O)c3c(c(O)c1C2=O)C[C@@](O)(C(=O)CSc1ccccc1)C[C@@H]3OC1CC(N)C(O)C(C)O1` (stereo not given in full), for which the IC50 in the experiment on CCRF-CEM is 0.87 µM. The compound also showed an ILS at 10.13 mg/kg in the experiment with L1210 [3] of 22%.
